In this test the target is T1, human GR (Homo sapiens, UniProt P04150).
T1 construct: naturally expresses the human GR; endogenous in cells
T1 sequence (P04150 1-777): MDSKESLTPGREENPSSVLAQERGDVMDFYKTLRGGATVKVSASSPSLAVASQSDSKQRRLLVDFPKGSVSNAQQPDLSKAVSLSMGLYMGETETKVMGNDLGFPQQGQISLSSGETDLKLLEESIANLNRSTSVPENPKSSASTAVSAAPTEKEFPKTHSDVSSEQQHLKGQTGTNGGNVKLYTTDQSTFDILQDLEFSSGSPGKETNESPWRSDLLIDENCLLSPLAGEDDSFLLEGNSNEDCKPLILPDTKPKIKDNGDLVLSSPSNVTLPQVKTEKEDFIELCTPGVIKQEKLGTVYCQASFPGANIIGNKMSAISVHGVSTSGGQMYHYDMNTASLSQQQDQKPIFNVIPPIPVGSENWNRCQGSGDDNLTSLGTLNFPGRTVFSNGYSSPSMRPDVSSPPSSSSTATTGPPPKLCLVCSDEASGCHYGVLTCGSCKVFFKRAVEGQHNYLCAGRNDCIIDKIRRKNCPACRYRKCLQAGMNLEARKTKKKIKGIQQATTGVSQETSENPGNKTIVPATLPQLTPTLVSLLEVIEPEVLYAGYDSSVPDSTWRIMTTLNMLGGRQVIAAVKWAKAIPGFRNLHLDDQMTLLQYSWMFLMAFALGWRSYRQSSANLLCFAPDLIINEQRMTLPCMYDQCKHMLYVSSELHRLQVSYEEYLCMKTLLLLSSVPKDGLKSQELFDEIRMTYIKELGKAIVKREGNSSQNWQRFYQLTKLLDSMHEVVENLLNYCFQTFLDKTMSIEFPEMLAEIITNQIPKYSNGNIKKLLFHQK
As to the kind of experiment: Trans-Activation Modulation of Glucocorticoid Receptor Assay (GRAMMER), MMTV-LUC reporter in A549 cells. To be noted: for Emax: A549, Emax relative to the activity obtained with 300 nM dexamethasone, read-out: Transactivation A549 Cells GRAMMER Emax (%); for EC50: inflection point (IP), MMTV-LUC reporter, read-out: Transactivation A549 Cells GRAMMER IP. Type of test: cell-based. An excerpt: This assay assesses the ability of test compounds to control transcription from the MMTV-LUC reporter gene in lung adenocarcinoma A549 cells or HeLa cells, a human […] cell line that naturally expresses the human GR. The assay measures induction of a modified MMTV LTR/promoter linked to the LUC reporter gene.
The routine transient assay consists of plating 7,000-25,000 cells/well of a white, clear-bottom 96-well plate. Alternatively, 384-well plates can be used at a cell concentration of 10,000/well. The media that the cells are plated in is “exponential growth medium” which consists of phenol red-free RPMI1640 containing 10% FBS, 4 mM L-glutamine, 20 mM HEPES, 10 ug/mL human insulin, and 20 ug/mL gentamicin. Incubator conditions are 37° C. and 5% CO2. The transfection is done in batch mode. The cells are trypsinized and counted to the right cell number in the proper amount of fresh media. It is then gently mixed with the FuGene6/DNA mix and plated onto the 96 or 384-well plate, all the wells receive 100 uL or 40 uL, respectively, of medium+lipid/DNA complex then incubated 37° C. overnight. The transfection cocktail consists of serum-free OptiMEM, FuGene6 reagent and DNA. The manufacturer's (Roche Biochemical) protocol for cocktail setup is as follows: The lipid to DNA ratio is approximately 2.5:1 and the incubation time is 20 min at room temperature. Sixteen to 24 hours after transfection, the cells are treated with dexamethasone to a final concentration of 10 nM as well as the compound of interest, such that final DMSO (vehicle) concentration is equal to or less than 1%. Each plate also contains samples that are treated with 10 nM dexamethasone alone, which is used as the 100% activity control. The cells are exposed to the compounds for 24 hours. After 24 hours, the cells are lysed by a Promega cell culture lysis buffer for approximately 30 min and then the luciferase activity in the extracts is assayed in the 96-well format luminometer. In 384-well format, Steady-Glo (Promega) or Steady-Lite (PerkinElmer) can be used by adding an equal volume of reagent to the media present in each well. Activity induced by 10 nM dexamethasone alone is set at 100% activity. Antagonist activity is calculated by determining the decrease in dexamethasone-induced activity in response to compound treatment relative to samples that were treated with dexamethasone alone. Results are expressed as % inhibition of 10 nM dexamethasone activity or as fold of 10 nM dexamethasone activity. This transactivation assay can be performed in an agonist and antagonist mode to identify these different activities.
Activity of test compounds is calculated as the Emax relative to the activity obtained with 300 nM dexamethasone. Activity of test compounds is calculated as the Emax relative to the activity obtained with 300 nM DEX. The exemplified tissue selective glucocorticoid receptor modulators of the present invention display agonist activity in this assay of greater than 5% and less than 100%, and maximal transactivation activity less then maximal transrepression activity. […]

Consider `C[C@]12Cc3cnn(-c4ccc(F)cc4)c3C=C1CC[C@@]2(CO)CC1OC(=O)c2ccccc21` (stereo partly drawn) [Example 11, 3-{[(4αS,5R)-1-(4-fluorophenyl)-5-(hydroxymethyl)-4α-methyl-1,4,4α,5,6,7,7a,8-octahydrocyclopenta[f]indazol-5-yl]methyl}-2-benzofuran-1(3H)-one], for which the Emax is 41.8% and the EC50 was found to be 332 nM.
On to `Cc1ccc(C(O)C[C@]2(CO)CCC3=Cc4c(cnn4-c4ccc(F)cc4)C[C@@]32C)nc1` (stereo partly drawn) [Example 16, 2-[(4αS,5R)-1-(4-fluorophenyl)-5-(hydroxymethyl)-4α-methyl-1,4,4α,5,6,7-hexahydrocyclopenta[f]indazol-5-yl]-1-(5-methylpyridin-2-yl)ethanol], for which the Emax was determined as 38.3% and the EC50 was 18.4 nM.

For the origin of these results see patent US20120095055A1, “HEXAHYDROCYCLOPENTYL[f]INDAZOLE 5-HYDROXYMETHYL ETHANOLS AND DERIVATIVES THEREOF AS SELECTIVE GLUCOCORTICOID RECEPTOR MODULATORS” (Merck Sharp & Dohme, Corp., priority 2009, published 2012).
